Consider 17 compounds from US20190337971A1, “PANTETHEINE DERIVATIVES FOR THE TREATMENT OF NEUROLOGIC DISORDERS” (Retrophin, Inc., priority 2016, published 2019).

For the assay, the system named is PANK2−/− IMR32 cells. Description: Coenzyme A assay in PANK2 silenced cells (LC-MS quantification of free CoA). The format is cell-based, human. Particulars: fold increase in CoA levels relative to controls, treated twice, 24 h + 24 h; for fold induction at 50 µM: compound concentration 50 uM; for fold induction at 1 µM: compound concentration 1 uM. The procedure: A human neuroblastoma IMR32 cell line (ATCC) with stably PANK2 silencing was obtained by lentiviral-delivered small hairpin RNA and cultured in MEM (Invitrogen) supplemented with 10% fetal bovine serum, 2 mM glutamine, 1% penicillin-streptomycin, 1 mM sodium pyruvate, 1 mM non-essential amino acids, and 1.5 g/l sodium bicarbonate.
A non-silencing shRNA construct (scrambled shRNA) and an empty vector expressing GFP alone were used as negative controls. The GFP tag subcloned into the lentiviral vectors was used to monitor the transfection efficiency.
Three days after transduction medium was removed and replaced with fresh medium containing […] puromycin. […] The level of PANK2 expression in selected clones was assessed by Western Blot analysis.
To quantify CoA, PANK2−/− IMR32 cells were plated on 12-well culture plates (Corning) at a density of 0.2×10^6 cells per well. […] Controls with medium containing 0.1% DMSO without test compounds were also included in each plate. […] Before LC-MS analysis of CoA levels, cells were harvested, counted, and collected in a 15 ml falcon tube and centrifuged at 200×g for 5 min at 4° C. Supernatant was removed and cell pellet was washed in 10 ml of ice-cold PBS. To further confirm that the numbers of cells in each sample were equivalent, an equal fraction of pellet was collected from each sample and subjected to protein determination analysis. After centrifugation and supernatant removal, the cell pellet was rapidly frozen in Liquid Nitrogen and stored at −80° C. until analysis.
Intracellular CoA levels were calculated considering an intracellular volume of 1 million cells=2 μl.
The 1*10^6 cellular pellet was extracted with 120 μl of aqueous 20% TFA.
100 μL samples of supernatant were dried under N2 at 20° C. in the dark.
Samples were re-dissolved in 100 μl of 10 mM NH4^+ AcO^− buffer pH 5.1+IS (Dextrorphan 50 ng/ml), stirred for 2 min, sonicated in ultrasonic bath for 1 min, then stirred again for 1 min, and injected into LC-MS.
LC-MS/MS was performed using an Agilent HPLC (1100 Series, USA). The LC system was interfaced with an API-4000 Q-Trap triple quadrupole mass spectrometer (AB Sciex, Toronto, Canada) equipped with a TurboIonSpray ionization source operating in positive ion mode. Analyst™ software version 1.6 (AB Sciex, Toronto, Canada) was used for data acquisition and processing. CoA was separated using a Luna C18 column (2.0×50 mm; 5 μm particle size), column at 25° C. and flow rate of 0.2 ml/min. Injection volume was 15 μl. The mobile phases consisted of water containing 10 mM ammonium acetate pH 7 (mobile phase A) and MeCN-2-propanol 9:1 (mobile phase B).
Results are expressed as fold increase in CoA levels relative to controls (using LC-MS quantification of free CoA).

Consider `CC(=O)SCCNC(=O)CCNC(=O)[C@@H]1OP(=O)(OCOC(=O)NC(C)(C)COC(=O)C(C)(C)C)OCC1(C)C` (stereo partly drawn) [R1028, 2-((((((4R)-4-((3-((2-(acetylthio)ethyl)amino)-3-oxopropyl)carbamoyl)-5,5-dimethyl-2-oxido-1,3,2-dioxaphosphinan-2-yl)oxy)methoxy)carbonyl)amino)-2-methylpropyl pivalate], for which, under “Homo sapiens, IMR-32”, the fold induction (commonly the ratio of treated to control signal) at 50 µM was found to be 5.7.
On the same count and under the same terms, the figure for `CC(=O)SCCNC(=O)CCNC(=O)[C@@H]1OP(=O)(OCOC(=O)N[C@@H](CSC(=O)C(C)(C)C)C(=O)OCc2ccccc2)OCC1(C)C` (stereo partly drawn) [R1029, benzyl N-(((((4R)-4-((3-((2-(acetylthio)ethyl)amino)-3-oxopropyl)carbamoyl)-5,5-dimethyl-2-oxido-1,3,2-dioxaphosphinan-2-yl)oxy)methoxy)carbonyl)-S-pivaloyl-L-cysteinate] is 120.
In the case of `CC(=O)SCCNC(=O)CCNC(=O)[C@@H]1O[P@@](=O)(OCOC(=O)NCCOC(=O)C(C)(C)C)OCC1(C)C` [R1030, 2-((((((2S,4R)-4-((3-((2-(acetylthio)ethyl)amino)-3-oxopropyl)carbamoyl)-5,5-dimethyl-2-oxido-1,3,2-dioxaphosphinan-2-yl)oxy)methoxy)carbonyl)amino)ethyl pivalate], the fold induction at 10 µM (Homo sapiens, IMR-32, compound concentration 10 uM) was 7.1.
As for `CC(=O)SCCNC(=O)CCNC(=O)[C@@H]1OP(=O)(OCOC(=O)NCCOC(=O)[C@@H](N)C(C)C)OCC1(C)C` (stereo partly drawn) [R1032, 2-((((((4R)-4-((3-((2-(acetylthio)ethyl)amino)-3-oxopropyl)carbamoyl)-5,5-dimethyl-2-oxido-1,3,2-dioxaphosphinan-2-yl)oxy)methoxy)carbonyl)amino)ethyl L-valinate], the fold induction at 50 µM (Homo sapiens, IMR-32) is 1.
As for `CC(=O)SCCNC(=O)CCNC(=O)[C@@H]1OP(=O)(OCOC(=O)c2ccc(Cl)cc2)OCC1(C)C` (stereo partly drawn) [R1033, (((4R)-4-((3-((2-(acetylthio)ethyl)amino)-3-oxopropyl)carbamoyl)-5,5-dimethyl-2-oxido-1,3,2-dioxaphosphinan-2-yl)oxy)methyl 4-chlorobenzoate], the fold induction at 1 µM (Homo sapiens, IMR-32) worked out at 25.8.
As to `CC(=O)SCCNC(=O)CCNC(=O)[C@@H]1OP(=O)(OCOC(=O)c2cccc(Cl)c2)OCC1(C)C` (stereo partly drawn) [R1034, (((4R)-4-((3-((2-(acetylthio)ethyl)amino)-3-oxopropyl)carbamoyl)-5,5-dimethyl-2-oxido-1,3,2-dioxaphosphinan-2-yl)oxy)methyl 3-chlorobenzoate], where the note is “Homo sapiens, IMR-32”, the fold induction at 1 µM was determined as 29.6.
With `COc1ccc(C(=O)OCOP2(=O)OCC(C)(C)[C@H](C(=O)NCCC(=O)NCCSC(C)=O)O2)cc1` (stereo partly drawn) [R1035, (((4R)-4-((3-((2-(acetylthio)ethyl)amino)-3-oxopropyl)carbamoyl)-5,5-dimethyl-2-oxido-1,3,2-dioxaphosphinan-2-yl)oxy)methyl 4-methoxybenzoate], the fold induction at 1 µM (Homo sapiens, IMR-32) was 18.
The same measure, in the same setting: for `CC(=O)SCCNC(=O)CCNC(=O)[C@@H]1OP(=O)(OCOC(=O)c2ccc(C)cc2)OCC1(C)C` (stereo partly drawn) [R1036, (((4R)-4-((3-((2-(acetylthio)ethyl)amino)-3-oxopropyl)carbamoyl)-5,5-dimethyl-2-oxido-1,3,2-dioxaphosphinan-2-yl)oxy)methyl 4-methylbenzoate] the value was 52.2; for `CC(=O)SCCNC(=O)CCNC(=O)[C@@H]1OP(=O)(OCOC(=O)c2ccc(C(F)(F)F)cc2)OCC1(C)C` (stereo partly drawn) [R1037, (((4R)-4-((3-((2-(acetylthio)ethyl)amino)-3-oxopropyl)carbamoyl)-5,5-dimethyl-2-oxido-1,3,2-dioxaphosphinan-2-yl)oxy)methyl 4-(trifluoromethyl)benzoate], 30.1; for `COc1cccc(C(=O)OCOP2(=O)OCC(C)(C)[C@H](C(=O)NCCC(=O)NCCSC(C)=O)O2)c1` (stereo partly drawn) [R1038, (((4R)-4-((3-((2-(acetylthio)ethyl)amino)-3-oxopropyl)carbamoyl)-5,5-dimethyl-2-oxido-1,3,2-dioxaphosphinan-2-yl)oxy)methyl 3-methoxybenzoate], 26.2.
Same read-out and setting: for `CC(=O)SCCNC(=O)CCNC(=O)[C@@H]1OP(=O)(OCOC(=O)c2cccc(C)c2)OCC1(C)C` (stereo partly drawn) [R1039, (((4R)-4-((3-((2-(acetylthio)ethyl)amino)-3-oxopropyl)carbamoyl)-5,5-dimethyl-2-oxido-1,3,2-dioxaphosphinan-2-yl)oxy)methyl 3-methylbenzoate] the value was 27.4.
With `CC(=O)SCCNC(=O)CCNC(=O)[C@@H]1OP(=O)(OCOC(=O)c2ccc(C(F)(F)F)cn2)OCC1(C)C` (stereo partly drawn) [R1040, (((4R)-4-((3-((2-(acetylthio)ethyl)amino)-3-oxopropyl)carbamoyl)-5,5-dimethyl-2-oxido-1,3,2-dioxaphosphinan-2-yl)oxy)methyl 5-(trifluoromethyl)picolinate], the fold induction at 50 µM (Homo sapiens, IMR-32) stood at 4.5.
Take `CC(=O)SCCNC(=O)CCNC(=O)[C@@H]1O[P@@](=O)(Oc2ccccc2)OCC1(C)C` [R1041, S-(2-(3-((2S,4R)-5,5-dimethyl-2-oxido-2-phenoxy-1,3,2-dioxaphosphinane-4-carboxamido)propanamido)ethyl) ethanethioate]: under “compound concentration 10 uM”, the “PANK2−/− CoA Fold increase” value was 1.8 fold.
With `CC(=O)SCCNC(=O)CCNC(=O)[C@@H]1O[P@](=O)(Oc2ccccc2)OCC1(C)C` [R1042, S-(2-(3-((2R,4R)-5,5-dimethyl-2-oxido-2-phenoxy-1,3,2-dioxaphosphinane-4-carboxamido)propanamido)ethyl) ethanethioate], the “PANK2−/− CoA Fold increase” value (compound concentration 10 uM) is 1.0 fold.
On the same count and under the same terms, the figure for `CC(=O)SCCNC(=O)CCNC(=O)[C@@H]1OP(=O)(Oc2ccccc2)OCC1(C)C` (stereo partly drawn) [R1043, S-(2-(3-((4R)-5,5-dimethyl-2-oxido-2-phenoxy-1,3,2-dioxaphosphinane-4-carboxamido)propanamido)ethyl) ethanethioate] is 1.1 fold.
Consider `CC(=O)SCCNC(=O)CCNC(=O)[C@@H]1O[P@](=O)(OCOC(=O)c2cc(C(C)(C)C)nn2C)OCC1(C)C` [R1044, (((2R,4R)-4-((3-((2-(acetylthio)ethyl)amino)-3-oxopropyl)carbamoyl)-5,5-dimethyl-2-oxido-1,3,2-dioxaphosphinan-2-yl)oxy)methyl 3-(tert-butyl)-1-methyl-1H-pyrazole-5-carboxylate], for which the fold induction at 1 µM (Homo sapiens, IMR-32) came to 20.3.
Turning to `CC(=O)SCCNC(=O)CCNC(=O)[C@@H]1O[P@@](=O)(OCOC(=O)c2cc(C(C)(C)C)nn2C)OCC1(C)C` [R1045, (((2S,4R)-4-((3-((2-(acetylthio)ethyl)amino)-3-oxopropyl)carbamoyl)-5,5-dimethyl-2-oxido-1,3,2-dioxaphosphinan-2-yl)oxy)methyl 3-(tert-butyl)-1-methyl-1H-pyrazole-5-carboxylate], the fold induction at 1 µM (Homo sapiens, IMR-32) is 2.3.
